Test results from patent publication US9695155B2, “Herbicidal substituted pyrimidinyloxy benzene compounds” (E. I. DU PONT DE NEMOURS AND COMPANY, priority 2013, dated 2017).

Key:
[1] = test system: deadnettle; assay: Test D preemergence; assay type: in vivo, Lamium amplexicaule
Description: (§1) Seeds of plant species selected from bluegrass (annual bluegrass, Poa annua), blackgrass (Alopecurus myosuroides), canarygrass (littleseed canarygrass, Phalaris minor), chickweed (common chickweed, Stellaria media), galium (catchweed bedstraw, Galium aparine), bromegrass, downy (downy bromegrass, Bromus tectorum), field poppy (Papaver rhoeas), field violet (Viola arvensis), green foxtail (Setaria viridis), deadnettle (henbit deadnettle, Lamium amplexicaule), Italian ryegrass (Lolium multiflorum), kochia (Kochia scoparia), lambsquarters (Chenopodium album), oilseed rape (Brassica napus), pigweed (Amaranthus retroflexus), chamomile (scentless chamomile, Matricaria inodora), Russian thistle (Salsola kali), speedwell (bird's-eye speedwell, Veronica persica), spring barley (Hordeum vulgare), spring wheat (Triticum aestivum), wild buckwheat (Polygonum convolvulus), wild mustard (Sinapis arvensis), wild oat (Avena fatua), wild radish (Raphanus raphanistrum), windgrass (Apera spica-venti), winter barley (Hordeum vulgare), and winter wheat (Triticum aestivum) were planted into a silt loam soil and treated preemergence with test chemicals formulated in a non-phytotoxic solvent mixture which included a surfactant.
(§2) At the same time, these species were planted in pots containing Redi-Earth® planting medium (Scotts Company, 14111 Scottslawn Road, Marysville, Ohio 43041) comprising spaghnum peat moss, vermiculite, wetting agent and starter nutrients and treated with postemergence applications of the test chemicals formulated in the same manner. Plants ranged in height from 2 to 18 cm (1- to 4-leaf stage). Treated plants and controls were maintained in a controlled growth environment for 7 to 21 days after which time all species were compared to controls and visually evaluated. Plant response ratings, summarized in Table D, are based on a scale of 0 to 100 where 0 is no effect and 100 is complete control. A dash (-) response means no test result.

[2] = test system: wild mustard; assay: Test D postemergence; assay type: in vivo, Sinapis arvensis
Outline: (§3)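 Plant response is a visual score from 0 (no effect) to 100 (complete control) relative to controls. Plants were kept in a controlled growth environment for 7 to 21 days after spraying. Preemergence treatments went onto silt loam soil; postemergence ones onto 1- to 4-leaf seedlings.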

[3] = test system: field violet; assay: Test D preemergence; assay type: in vivo, Viola arvensis
Description: as §1, §2

[4] = test system: windgrass; assay: Test D preemergence; assay type: in vivo, Apera spica-venti
Outline: as §3

[5] = test system: kochia; assay: Test D postemergence; assay type: in vivo, Kochia scoparia
Outline: as §3

[6] = test system: oilseed rape; assay: Test D postemergence; assay type: in vivo, Brassica napus
Outline: as §3

[7] = test system: chickweed; assay: Test D postemergence; assay type: in vivo, Stellaria media
Description: as §1, §2

[8] = test system: kochia; assay: Test D preemergence; assay type: in vivo, Kochia scoparia
Outline: as §3

[9] = test system: Italian ryegrass; assay: Test D postemergence; assay type: in vivo, Lolium multiflorum
Description: as §1, §2

[10] = test system: field poppy; assay: Test D preemergence; assay type: in vivo, Papaver rhoeas
Outline: as §3

[11] = 31 g ai/ha, scale 0 (no effect) to 100 (complete control)
[12] = 62 g ai/ha, scale 0 to 100 (0 no effect, 100 complete control)
[13] = 125 g ai/ha, scale 0 to 100 (0 no effect, 100 complete control)
[14] = 250 g ai/ha, scale 0 to 100 (0 no effect, 100 complete control)

N#Cc1cccc(Oc2ncc(Cl)cn2)c1-n1cc(-n2ccc(C(F)(F)F)n2)cn1 [Compound 284]
Plant response rating, Deadnettle [1, 11]: 35 | Plant response rating, Deadnettle ([1]; 62 g ai/ha, scale 0-100): 45 | Plant response rating, Deadnettle ([1]; 125 g ai/ha, scale 0-100): 75 | Plant response rating, Deadnettle ([1]; 250 g ai/ha, scale 0-100): 100 | Plant response rating, Mustard, Wild ([2]; 31 g ai/ha, scale 0-100): 100 | Plant response rating, Mustard, Wild [2, 12]: 100 | Plant response rating, Mustard, Wild [2, 13]: 100 | Plant response rating, Mustard, Wild [2, 14]: 100 | Plant response rating, Field Violet [3, 11]: 45 | Plant response rating, Field Violet ([3]; 62 g ai/ha, scale 0-100): 100 | Plant response rating, Field Violet ([3]; 125 g ai/ha, scale 0-100): 100 | Plant response rating, Field Violet ([3]; 250 g ai/ha, scale 0-100): 100 | Plant response rating, Windgrass [4, 11]: 20 | Plant response rating, Windgrass ([4]; 125 g ai/ha, scale 0-100): 45 | Plant response rating, Windgrass ([4]; 250 g ai/ha, scale 0-100): 55 | Plant response rating, Kochia ([5]; 31 g ai/ha, scale 0-100): 100 | Plant response rating, Kochia [5, 12]: 100 | Plant response rating, Kochia [5, 13]: 100 | Plant response rating, Kochia [5, 14]: 100 | Plant response rating, Oilseed Rape ([6]; 31 g ai/ha, scale 0-100): 65 | Plant response rating, Oilseed Rape [6, 12]: 70 | Plant response rating, Oilseed Rape [6, 13]: 100 | Plant response rating, Oilseed Rape [6, 14]: 100 | Plant response rating, Chickweed ([7]; 31 g ai/ha, scale 0-100): 80 | Plant response rating, Chickweed [7, 12]: 85 | Plant response rating, Chickweed [7, 13]: 90 | Plant response rating, Chickweed [7, 14]: 100 | Plant response rating, Kochia [8, 11]: 0 | Plant response rating, Kochia ([8]; 62 g ai/ha, scale 0-100): 20 | Plant response rating, Kochia ([8]; 125 g ai/ha, scale 0-100): 100 | Plant response rating, Kochia ([8]; 250 g ai/ha, scale 0-100): 95 | Plant response rating, Ryegrass, Italian ([9]; 31 g ai/ha, scale 0-100): 10 | Plant response rating, Ryegrass, Italian [9, 12]: 10 | Plant response rating, Ryegrass, Italian [9, 13]: 15 | Plant response rating, Ryegrass, Italian [9, 14]: 15 | Plant response rating, Field Poppy [10, 11]: 100 | Plant response rating, Field Poppy ([10]; 62 g ai/ha, scale 0-100): 100 | Plant response rating, Field Poppy ([10]; 125 g ai/ha, scale 0-100): 100 | Plant response rating, Field Poppy ([10]; 250 g ai/ha, scale 0-100): 100
